# From paper PMC9964505 (International Journal of Molecular Sciences, 2023)
# How the values were obtained:
# uninjured mice = tested on: uninjured mice; parameters: method as in PMID 34039739; details: peripheral dosing; cited from earlier work
# [1] = tested on: persistent mechanical pain in mouse models; parameters: method as in PMID 34039739; details: hindpaw injection; mouse plantar incision, CFA and paclitaxel models; cited from earlier work
# [2] = tested on: mechanical hypersensitivity in a mouse SNI model; parameters: method as in PMID 34039739; details: intra-plantar injection; cited from earlier work
# [3] = tested on: partial restraint stress-induced colonic hypersensitivity in female rats; assay: colonic distension test in partial restraint stress model; details: for percentual anti-hypersensitivity activity on colonic hypersensitivity: mean of three trials
# Protocol: Animals were placed for 2 h in a plexiglas restraint cylinder in order to restrict, but not impede, body movements. Naïve control animals were allowed to move freely in their cages. Immediately after completion of the 2 h restraint stress period, 3 consecutive determinations of colonic sensitivity were performed every 20 min.
# Colonic sensitivity was assessed by measuring the intra-colonic pressure required to induce a pain-related behavioral response during colonic distension (Electronic barostat, Distender Series IIRTM). Sedation is considered as a confounding factor in the assessment of pain, and therefore all experiments were performed in non-sedated conscious rats. In order to reduce bias, all experiments were performed by the same dedicated personnel within a study. The visceral pressure range was studied from 5 to 75 mmHg, but pain responses were typically evident at 30–35 mmHg. Briefly, a 5 cm balloon was gently inserted into the colon of conscious rats at 7 to 10 cm from the anus, and the catheter was taped to the base of the tail. After a 30 min acclimation period with the inserted balloon, colonic pressure was increased by 5 mmHg steps every 30 s, from 5 to 75 mmHg (cut-off), until pain-related elevation of the hind part of the rat body and/or a clearly visible abdominal contraction corresponding to severe cramp were evident.
# The formula: ((Distension thresholdTNBS/PRS + veh − Distension thresholdnaïve + veh)/(Distension thresholdnaïve + veh)) × 100, was used to calculate percentual variation due to trinitrobenzene sulfonic acid administration or partial restraint stress, as compared to naïve rats. […] Statistical analyses were conducted using GraphPad Prism (version 8.4.2) and p < 0.05 was considered to represent a significant difference.
# [4] = tested on: trinitrobenzene sulfonic acid-induced colonic hypersensitivity in male rats; assay: colonic distension test in TNBS-induced colonic hypersensitivity model; assay type: in vivo, rat; details: for mean percentual colonic anti-hypersensitivity activity: mean of four trials (30, 50, 70, 120 min)
# mice = details: mouse, in vivo, po; cited from earlier work
# [5] = plasma and brain exposure in male rats (CCI study and satellite rats); assay type: in vivo, rat; details: independent of dose or sampling time
# Protocol: Terminal samples for concentration analyses were also collected from HC-070-treated sciatic nerve-injured male animals at the end of the paw pressure test, and from female rats at the end of the last colonic distension test in the partial restraint stress (PRS) study. Briefly, total blood was collected by intra-cardiac puncture on anaesthetized (3% Isoflurane, 3 L/min) animals into pre-cooled K3EDTA tubes. Samples were gently mixed, placed on ice, and centrifuged at the latest within 30 min after collection at 1600× g or 1710× g for 10 min at 4 °C. At least 100–200 µL of plasma was gently collected and immediately frozen at −80 °C. After decapitation, the whole brain was collected, rinsed with fresh ice-cold 0.9% NaCl solution, and thereafter frozen in dry ice and stored in a polypropylene tube at −80 °C.
# incised mice = tested on: incised mice; parameters: method as in PMID 34039739; details: hindpaw administration; cited from earlier work
# [6] = tested on: CCI-induced mechanical hypersensitivity in male rats; assay: paw pressure test in chronic constriction injury (CCI) model
# Protocol: Prior to behavioral studies, the rats were habituated to the experimental conditions and handling. The common sciatic nerve of the right hindpaw was injured at the level of the middle of the thigh. Proximal to the sciatic trifurcation, four loose ligatures were tied around it with about 1 mm spacing using Mersilk sutures in anaesthetized rats (Xylazine 10 mg/kg i.p., Ketamine 60 mg/kg i.p.). Great care was taken to tie the ligatures, such that the diameter of the nerve was seen to be just barely constricted. Sham animals received only a skin and muscle incision. Fourteen days after the surgery, individual baseline values of the withdrawal threshold evoked by squeezing of the hind limb between a flat surface and a blunt pointer with an analgesimeter (Ugo Basile, Gemonio, Italy) were determined on both hindpaws while the animal was gently held in a restrained position. The analgesimeter exerted a steadily increasing force, and the reaction threshold was determined as the pressure (g) required to elicit paw withdrawal and/or vocalization. […] Dosing and testing were performed in a random order.
# Statistical analyses were conducted using GraphPad Prism (version 8.4.2) and p < 0.05 was considered to represent a significant difference.
# [7] = terminal plasma and brain exposure in female rats (PRS study); assay type: in vivo, rat; details: 3-30 mg/kg p.o.
# Protocol: Briefly, total blood was collected by intra-cardiac puncture on anaesthetized (3% Isoflurane, 3 L/min) animals into pre-cooled K3EDTA tubes. […] At least 100–200 µL of plasma was gently collected and immediately frozen at −80 °C. After decapitation, the whole brain was collected, rinsed with fresh ice-cold 0.9% NaCl solution, and thereafter frozen in dry ice and stored in a polypropylene tube at −80 °C.
# [8] = plasma protein binding, rapid equilibrium dialysis; assay type: in vitro ADME; details: rat plasma, 1 µg/mL, 37 °C, 4 h
# Protocol: Plasma protein binding studies were carried out in male Wistar Hannover rat plasma with heparin as the anticoagulant. All plasma samples were obtained from BioreclamationIVT (Baltimore, MD, USA). A Pierce Rapid Equilibrium Dialysis Device (RED) was used for the experiments. Aliquots of plasma (300 µL) containing the compound of interest (1 µg/mL) and phosphate-buffered saline (PBS) (500 µL) were added to the sample chamber and buffer chamber, respectively, on the RED device. The loaded dialysis plate was sealed and placed on a pre-heated shaker, and incubated at physiological temperature (+37 °C) for 4 h. After the incubation, aliquots of 50 µL for the donor and 200 µL for the receiver were removed from the chambers and placed into a 96-well plate. Plasma (50 µL) was added to the wells containing the receiver samples and 200 µL of PBS was added to the wells containing the donor samples. Two volumes of ACN were added to each well, and the samples were mixed and centrifuged, after which the supernatant was analysed by LC-MS/MS.
# [9] = brain homogenate binding, rapid equilibrium dialysis; assay type: in vitro ADME, rat; details: as fraction
# Protocol: The brain homogenate binding study was carried out in male Wistar Hannover brain homogenate, obtained from BioreclamationIVT (Baltimore, MD, USA). Brains were homogenized with two volumes of PBS prior to initiating the experiment. The instrumentation, volume ratios, incubation conditions, and sample preparation were the same as described above for plasma protein binding (brain homogenate used instead of plasma).
# [10] = tested on: rat spared nerve injury model of neuropathic pain; details: amygdaloid application; cited from earlier work
# [11] = tested on: mustard oil-induced visceral pain-related behaviors and hindpaw mechanical hypersensitivity; details: intraperitoneal, and oral to a lesser extent; cited from earlier work
smiles,measurement,setting,value
c1ccc(Cn2c(NCc3ccco3)nc3ccccc32)cc1 [AC1903],effect on naïve mechanical sensitivity,uninjured mice,did not change
same,effect on persistent mechanical pain,[1],prevents the persistent mechanical pain
same,effect on mechanical hypersensitivity,[2],failed to attenuate
Cn1c(=O)n(CCCO)c(=O)c2c1nc(Oc1cccc(Cl)c1)n2Cc1ccc(Cl)cc1 [HC-070],percentual anti-hypersensitivity activity on colonic hypersensitivity,[3]; 3 mg/kg p.o.,100%
same,percentual anti-hypersensitivity activity on colonic hypersensitivity,[3]; 10 mg/kg p.o.,181%
same,percentual anti-hypersensitivity activity on colonic hypersensitivity,[3]; 30 mg/kg p.o.,188%
same,effect on colonic sensibility after PRS,"[3]; oral doses of 3, 10 and 30 mg/kg",dose-dependently restored
same,effect on TNBS-induced colonic hypersensitivity (colonic distension threshold),"[4]; 3 mg/kg p.o., at 70 and 120 min",significantly and in a dose-dependent manner attenuated
same,mean percentual colonic anti-hypersensitivity activity,[4]; 3 mg/kg p.o.,58%
same,effect on TNBS-induced colonic hypersensitivity (colonic distension threshold),"[4]; 10 mg/kg p.o., all time points (30-120 min)",reversed
same,mean percentual colonic anti-hypersensitivity activity,[4]; 10 mg/kg p.o.,99%
same,effect on TNBS-induced colonic hypersensitivity (colonic distension threshold),"[4]; 30 mg/kg p.o., all time points (30-120 min)",reversed
same,mean percentual colonic anti-hypersensitivity activity,[4]; 30 mg/kg p.o.,134%
same,effect on locomotor activity,mice,nor did oral HC-070 treatment alter the locomotor activity
same,"KP,uu,BR (partitioning coefficient between unbound brain and plasma exposures)",[5],0.4–0.6
same,effect on established postoperative mechanical hypersensitivity,incised mice,alleviated
same,"reversal percentage of CCI-induced mechanical hypersensitivity, injured paw","[6]; 3 mg/kg p.o., 45 min",34%
same,"effect on CCI-induced mechanical hypersensitivity (withdrawal threshold, injured paw)","[6]; 10 mg/kg p.o., 75 min",significantly attenuated
same,"reversal percentage of CCI-induced mechanical hypersensitivity, injured paw","[6]; 10 mg/kg p.o., 75 min",51%
same,"effect on CCI-induced mechanical hypersensitivity (withdrawal threshold, injured paw)","[6]; 30 mg/kg p.o., 45 min",significantly attenuated
same,"reversal percentage of CCI-induced mechanical hypersensitivity, injured paw","[6]; 30 mg/kg p.o., 45 min",62%
same,"KP,uu,BR (partitioning coefficient between unbound brain and plasma exposures)",[7],0.5–0.8
same,plasma protein binding,[8],99.5%
same,unbound fraction in rat brain homogenate,[9],0.001
Cc1cc(N2CCCCC2)nc2ccccc12 [ML-204],effect on mechanical hypersensitivity and affective-like spontaneous pain-related behavior,[10],dose-dependent suppression
same,effect on mustard oil-induced visceral pain-related behaviors and hindpaw mechanical hypersensitivity,[11],dose-dependently attenuated
CN1CC[C@]23c4c5ccc(O)c4O[C@H]2[C@@H](O)C=C[C@H]3[C@H]1C5 [morphine],effect on PRS-lowered visceral pain threshold,[3]; 1 mg/kg s.c.,significant reversal
same,percentual anti-hypersensitivity activity on colonic hypersensitivity,[3]; 1 mg/kg s.c.,272%
same,effect on mechanical withdrawal threshold of the non-injured control paw,[6]; 3 mg/kg s.c.,statistically significantly increased
same,effect on sustained CCI-induced mechanical hypersensitivity (reversal),"[6]; 3 mg/kg s.c., first two time points (45, 75 min)",abolished
